{"source": "paper PMC8892206", "about": "“An RRx-001 Analogue With Potent Anti-NLRP3 Inflammasome Activity but Without High-Energy Nitro Functional Groups” (Frontiers in Pharmacology, 2022)", "target": "T1, NLRP3 (Homo sapiens, UniProt Q96P20)", "T1 construct": "purified human His-GFP-NLRP3; NACHT domain mapped by DARTS", "assay": "microscale thermophoresis with purified GFP-NLRP3; DARTS and C409A mutation support", "type": "binding", "data": [{"smiles": "O=C(CBr)NCc1ccc(C(F)(F)F)cc1", "note": "[149-01]", "values": [{"measurement": "Kd", "value": 48.2, "unit": "nM"}]}]}
